Measurements published in BigSolDB 2.1.

Nc1cc(Cl)nnc1Cl
Conditions | solubility (mole fraction)
in 1,4-dioxane, 289.15 K | 0.00294
in 1,4-dioxane, 293.65 K | 0.00365
in 1,4-dioxane, 298.15 K | 0.00427
in 1,4-dioxane, 303.15 K | 0.00556
in 1,4-dioxane, 308.15 K | 0.0066
in 1,4-dioxane, 313.15 K | 0.00811
in 1,4-dioxane, 318.15 K | 0.00982
in 1,4-dioxane, 323.15 K | 0.0121
in THF, 290.05 K | 0.0443
in THF, 295.15 K | 0.0484
in THF, 299.15 K | 0.0517
in THF, 303.15 K | 0.0556
in THF, 305.15 K | 0.057
in THF, 308.15 K | 0.0604
in THF, 313.65 K | 0.0648
in THF, 318.15 K | 0.0688
in THF, 323.15 K | 0.0752
in acetone, 295.65 K | 0.0244
in acetone, 298.15 K | 0.0258
in acetone, 300.65 K | 0.0276
in acetone, 303.15 K | 0.0293
in acetone, 305.65 K | 0.0311
in acetone, 308.15 K | 0.0327
in acetone, 310.65 K | 0.0342
in acetone, 313.15 K | 0.036
in acetone, 315.65 K | 0.0377
in acetone, 318.15 K | 0.0393
in acetone, 320.65 K | 0.041
in acetone, 323.15 K | 0.0427
in dichloromethane, 295.15 K | 7.41e-05
in dichloromethane, 297.15 K | 0.000111
in dichloromethane, 299.15 K | 0.000174
in dichloromethane, 301.15 K | 0.000262
in dichloromethane, 303.15 K | 0.000387
in dichloromethane, 305.15 K | 0.000543
in dichloromethane, 307.15 K | 0.000811
in dichloromethane, 309.15 K | 0.00117
in ethyl acetate, 295.65 K | 0.00111
in ethyl acetate, 298.15 K | 0.00134
in ethyl acetate, 300.65 K | 0.00159
in ethyl acetate, 303.15 K | 0.00192
in ethyl acetate, 305.65 K | 0.00235
in ethyl acetate, 308.15 K | 0.00303
in ethyl acetate, 310.65 K | 0.00371
in ethyl acetate, 313.15 K | 0.0049
in ethyl acetate, 315.65 K | 0.00577
in methanol, 295.65 K | 0.0142
in methanol, 298.15 K | 0.0153
in methanol, 300.65 K | 0.0161
in methanol, 303.15 K | 0.0169
in methanol, 305.65 K | 0.0178
in methanol, 308.15 K | 0.0189
in methanol, 310.65 K | 0.0201
in methanol, 313.15 K | 0.0214
in methanol, 315.65 K | 0.0229
